The source of these data is patent US9586961B2, “Homopiperazine derivatives as protein tyrosine kinase inhibitors and pharmaceutical use thereof” (LEO PHARMA A/S, priority 2010, dated 2017).

Format in all cases: biochemical
Experiment [1] addresses T1, JAK3 (Homo sapiens, UniProt P52333).
T1 construct: All four purified enzymes contain only the catalytic domain; His (N); purchased Carna Biosciences, Inc; host or cells: baculovirus expression system
The experiment in a line: JAK3 kinase assay (HTRF, inhibition of phosphorylation of a synthetic peptide). Conditions: catalytic domain, His-tag; 2 μM ATP (Km); read-out: JAK3 kinase inhibitory activity (EC50). As to the method:
(§1) JAK1, JAK2, JAK3 and TYK2 Kinase Assays:
(§2) Human baculovirus-expressed JAK1, 2, 3 and TYK2 were purchased from Carna Biosciences, Inc. All four purified enzymes contain only the catalytic domain. JAK1 (aa 850-1154) and TYK2 (aa 871-1187) are expressed with an N-terminally fused GST-tag, and JAK2 and JAK3 with an N-terminally fused His-tag. Inhibition of phosphorylation of a synthetic peptide was measured in an HTRF-based assay using the TK substrate-Biotin from the CisbioHTRFKinEASE TK kit. First, 2 μl of TK solution (TK substrate-biotin in kinase buffer [1× enzymatic buffer from HTRFKinEASE TK kit, 1 mM DTT]) is added to a plate containing 1 μl prediluted compound (final assay concentration DMSO: 0.75%). Then, 5 μl kinase-ATP mix (prepared in kinase buffer) is added to the wells and the plates are incubated at RT for 20-30 min. For all four kinases a concentration of ATP that corresponded to the Km for ATP was used. The final concentrations of buffers, substrate, kinase and ATP were: JAK1: 50 mMHepes buffer pH 7.0, 0.01% BSA, 10 mM MgCl2, 1 mM DTT, 7 μM ATP, 50 nMSEB, 1 μM TK Substrate-Biotin and 5 ng JAK1; JAK2: 50 mM Hepes buffer pH 7.0, 0.01% BSA, 5 mM MgCl2, 1 mM DTT, 4 μM ATP, 1 μM TK Substrate-Biotin and 0.1 ng JAK2; JAK3: 50 mMHepes buffer pH 7.0, 0.01% BSA, 5 mM MgCl2, 1 mM DTT, 2 μM ATP, 1 μM TK Substrate-Biotin and 0.3 ng JAK3; TYK2: 50 mMHepes buffer pH 7.0, 0.01% BSA, 5 mM MgCl2, 1 mM DTT, 13 μM ATP, 50 nMSEB, 1 μM TK Substrate-Biotin and 0.8 ng TYK2. Thereafter, the kinase reaction is stopped by adding 4 μl detection mix (final concentrations: 50 mM Hepes buffer pH 7.0, 0.01% BSA, 0.8 M KF, 20 mM EDTA, 42 nM Streptavidin-XL665 and 1:400 STKAbCryptate) and the plates are incubated overnight in the dark. The HTRF signal is read using an Envision plate reader.
For orientation: TR-FRET usually uses a lanthanide donor and a delayed reading to cut background.

The target in experiment [2] is T2, JAK2 (Homo sapiens, UniProt O60674).
T2 construct: All four purified enzymes contain only the catalytic domain; His (N); purchased Carna Biosciences, Inc; host or cells: baculovirus expression system
T2 sequence (O60674 849-1124 limits assumed): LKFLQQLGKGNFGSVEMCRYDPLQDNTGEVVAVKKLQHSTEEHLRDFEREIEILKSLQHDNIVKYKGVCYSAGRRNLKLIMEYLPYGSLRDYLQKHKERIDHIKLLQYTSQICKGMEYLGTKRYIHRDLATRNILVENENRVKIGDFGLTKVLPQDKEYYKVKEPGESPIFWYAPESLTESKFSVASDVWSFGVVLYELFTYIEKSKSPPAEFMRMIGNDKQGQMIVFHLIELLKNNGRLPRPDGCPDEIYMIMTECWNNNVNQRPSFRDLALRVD
The experiment in a line: JAK2 kinase assay (HTRF, inhibition of phosphorylation of a synthetic peptide). Conditions: catalytic domain, His-tag; 4 μM ATP (Km); read-out: JAK2 kinase inhibitory activity (EC50). As to the method:
as §1, §2

The target in experiment [3] is T3, JAK1 (Homo sapiens, UniProt P23458).
T3 construct: JAK1 (aa 850-1154) and TYK2 (aa 871-1187) are expressed with an N-terminally fused GST-tag; GST (N); purchased Carna Biosciences, Inc; host or cells: baculovirus expression system
T3 sequence (P23458 850-1154): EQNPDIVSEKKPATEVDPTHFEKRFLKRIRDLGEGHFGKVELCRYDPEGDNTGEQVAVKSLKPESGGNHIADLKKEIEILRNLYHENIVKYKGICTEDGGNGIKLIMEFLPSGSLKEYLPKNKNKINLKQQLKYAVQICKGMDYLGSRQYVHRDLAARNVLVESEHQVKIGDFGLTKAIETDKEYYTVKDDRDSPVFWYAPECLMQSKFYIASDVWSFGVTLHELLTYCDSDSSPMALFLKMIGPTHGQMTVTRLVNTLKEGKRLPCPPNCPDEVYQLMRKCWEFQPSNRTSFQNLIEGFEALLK
In words: JAK1 kinase assay (HTRF, inhibition of phosphorylation of a synthetic peptide). Conditions: catalytic domain aa 850-1154, GST-tag; 7 μM ATP (Km); read-out: JAK1 kinase inhibitory activity (EC50). As to the method:
as §1, §2

T1 sequence (P52333 822-1111 limits assumed): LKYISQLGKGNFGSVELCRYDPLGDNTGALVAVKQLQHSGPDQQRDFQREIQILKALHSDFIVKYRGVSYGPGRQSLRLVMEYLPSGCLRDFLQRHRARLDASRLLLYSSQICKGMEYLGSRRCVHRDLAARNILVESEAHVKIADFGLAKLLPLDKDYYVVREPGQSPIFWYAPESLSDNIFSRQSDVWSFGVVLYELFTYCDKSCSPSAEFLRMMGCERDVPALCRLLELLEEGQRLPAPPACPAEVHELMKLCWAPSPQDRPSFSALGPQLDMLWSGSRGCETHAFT

Broadly, the EC50 is the concentration needed to bring the measured effect to its halfway point. For `O=C(Cc1ccc(F)cc1)N1CCCN(c2ncnc3[nH]ccc23)CC12CC2` [Example 159, 2-(4-fluorophenyl)-1-[5-(7H-pyrrolo[2,3-d]pyrimidin-4-yl)-5,9-diazaspiro[2.6]nonan-9-yl]ethanone], the concentration giving a half-maximal response (EC50) in experiment [1] was greater than 1 µM; in experiment [2], less than 0.1 µM; in experiment [3], 0.1 to 1 µM.
With `O=C(Cc1cncs1)N1CCN(c2ncnc3[nH]ccc23)CC2(CC2)C1` [Example 252, 1-[5-(7H-pyrrolo[2,3-d]pyrimidin-4-yl)-5,8-diazaspiro[2.6]nonan-8-yl]-2-thiazol-5-yl-ethanone], the EC50 in experiment [1] is 0.1 to 1 µM; in experiment [2], less than 0.1 µM; in experiment [3], 0.1 to 1 µM.
Turning to `O=C(c1cncs1)N1CCCN(c2ncnc3[nH]ccc23)CC12CC2` [Example 240, [5-(7H-pyrrolo[2,3-d]pyrimidin-4-yl)-5,9-diazaspiro[2.6]nonan-9-yl]-thiazol-5-yl-methanone], the concentration for a half-maximal effect (EC50) in experiment [1], in experiment [2] and in experiment [3] was 0.1 to 1 µM each time.
As for `O=C(c1cccc(Cl)c1)N1CCCN(c2ncnc3[nH]ccc23)CC12CC2` [Example 179, (3-chlorophenyl)-[5-(7H-pyrrolo[2,3-d]pyrimidin-4-yl)-5,9-diazaspiro[2.6]nonan-9-yl]methanone], the results for the EC50 in experiment [1], in experiment [2] and in experiment [3] were 0.1 to 1 µM, less than 0.1 µM and 0.1 to 1 µM, respectively.
Regarding `O=C(c1ccncc1)N1CCCN(c2ncnc3[nH]ccc23)CC12CC2` [Example 130, 4-pyridyl-[5-(7H-pyrrolo[2,3-d]pyrimidin-4-yl)-5,9-diazaspiro[2.6]nonan-9-yl]methanone], the EC50 was greater than 1 µM in experiment [1], 0.1 to 1 µM in experiment [2] and 0.1 to 1 µM in experiment [3].
For the molecule `N#Cc1ccc(/C=C/C(=O)N2CCN(c3ncnc4[nH]ccc34)CC3(CC3)C2)cc1` [Example 117, 4-[(E)-3-oxo-3-[5-(7H-pyrrolo[2,3-d]pyrimidin-4-yl)-5,8-diazaspiro[2.6]nonan-8-yl]prop-1-enyl]benzonitrile], the EC50 in experiment [2] and in experiment [3] was 0.1 to 1 µM each time.
With `O=C(c1cccc(O)n1)N1CCN(c2ncnc3[nH]ccc23)CC2(CC2)C1` [Example 163, (6-hydroxy-2-pyridyl)-[5-(7H-pyrrolo[2,3-d]pyrimidin-4-yl)-5,8-diazaspiro[2.6]nonan-8-yl]methanone], the figures for the EC50 in experiment [1], in experiment [2] and in experiment [3] were greater than 1 µM, 0.1 to 1 µM and 0.1 to 1 µM, respectively.
As for `O=C(c1c[nH]nn1)N1CCCN(c2ncnc3[nH]ccc23)CC12CC2` [Example 205, [5-(7H-pyrrolo[2,3-d]pyrimidin-4-yl)-5,9-diazaspiro[2.6]nonan-9-yl]-(1H-triazol-4-yl)methanone], the EC50 in experiment [1], in experiment [2] and in experiment [3] was 0.1 to 1 µM in each case.
In the case of `Cc1cnc(C(=O)N2CCN(c3ncnc4[nH]ccc34)CC3(CC3)C2)cn1` [Example 196, (5-methylpyrazin-2-yl)-[5-(7H-pyrrolo[2,3-d]pyrimidin-4-yl)-5,8-diazaspiro[2.6]nonan-8-yl]methanone], the EC50 in experiment [1], in experiment [2] and in experiment [3] was greater than 1 µM throughout.
Take `O=C(c1ccncc1)N1CCN(c2ncnc3[nH]ccc23)CC2(CC2)C1` [Example 129, 4-pyridyl-[5-(7H-pyrrolo[2,3-d]pyrimidin-4-yl)-5,8-diazaspiro[2.6]nonan-8-yl]methanone]: the EC50 in experiment [1] is greater than 1 µM; in experiment [2] it was 0.1 to 1 µM; in experiment [3], 0.1 to 1 µM.
For the molecule `O=C(c1ccccc1Cl)N1CCN(c2ncnc3[nH]ccc23)CC2(CC2)C1` [Example 185, (2-chlorophenyl)-[5-(7H-pyrrolo[2,3-d]pyrimidin-4-yl)-5,8-diazaspiro[2.6]nonan-8-yl]methanone], the concentration for a half-maximal effect (EC50) in experiment [1] was greater than 1 µM; in experiment [2], 0.1 to 1 µM; in experiment [3], 0.1 to 1 µM.
